The values that follow come from patent US20080280837A1, “Biologically Active Compounds with Anti-Angiogenic Properties” (priority 2004, published 2008).

Bounds are passed on as bounds.

The target of one series is T1, SSTR-4 (Homo sapiens, UniProt P31391).
T1 construct: expressed in transfected cells
Nature of the series: Radioligand binding screen against somatostatin subtype SSTR-4 (SST4 assay). The settings on record: concentration required to displace 50% of the competitive radioligand; read-out: IC50 SSTR4. The protocol: Receptor membrane preparations containing the desired cloned receptor (for example cloned human somatostatin receptor subtype 5, SSTR5) and radio-labeled ligand (for example 3-[^125I]iodotyrosyl^11 Somatostatin-14)) were diluted at the concentration required for testing and according to the specific parameters associated with the selected receptor-ligand combination, including receptor Bmax, ligand Kd and any other parameters necessary to optimize the experimental conditions. When tested for competition activity to the reference ligand, “compound 1” was mixed with membrane suspension and the radiolabeled reference ligand (with or without an excess of cold ligand to the receptor for determination of non-specific binding) and incubated at the temperature required by internal standard operating procedures. Following incubation, the binding reaction was stopped by the addition of ice-cold washing buffer and filtered on appropriate filters, which are then counted. Data analysis and curve-fitting was performed with XLfit (IDBS).
10 mM solutions of test compounds in 100% DMSO were prepared. ˜160 μl was used for each dilution (20 μl/well in triplicate).
A 1.25 mM assay stock was prepared by making a 1:8 dilution of the 10 mM solution. (To 30 μL of the 10 mM solution was added 210 μL milli-Q H2O. A 1:5 dilution series in milli-Q H2O was then prepared.
Assays were performed in triplicate at each concentration within the 1:5 dilution series: 250 μM, 50 μM, 10 μM, […], 0.4 μM, 0.08 μM, 0.016 μM, 0.0032 μM, etc. (for SST4 assay) and 125 μM, 10 μM, 2 μM, 1 μM, 0.5 μM, etc (for SST5 assay).
In primary screening experiments compounds were tested in duplicate for a particular concentration.

Series [1] concerns PC-3 human prostate tumour xenograft. The series is described as follows: Nude mouse model of human PC-3 prostate tumours. The following applies: PC-3 xenograft. In kind it is in vivo, nude mice. The protocol:
Initial Maximum Tolerated Dose (MTD) studies were done in male nude mice to determine the appropriate intravenous dosing regimen for the PC-3 human prostate tumour model. A range of doses between 0 and 50 mg/Kg for 28 days (qdx28) were tested. Mice were randomized into groups with 5 animals per group including vehicle control. Animals were weighed twice weekly starting on day one and observed daily for adverse reactions or toxicity due to the agent. MTD studies determined the selection of 20 mg/kg and 35 mg/kg for intravenous dosing once per day for 28 days in the PC-3 human prostate tumour xenograft model.
Male nude mice (nu/nu) between 5 and 6 weeks of age weighing approximately 25 g were implanted subcutaneously (s.c) by trocar with fragments of PC-3 human tumour carcinomas harvested from s.c growing tumours in host mice. PC-3, is a metastatic human prostate adenocarcinoma cell line originating from a person. When tumours reached approximately 36 mm^3 in size animals were pair matched into treatment and control groups with 10 mice in each group. […]
At the end of the treatment period the mice were weighed and sacrificed. Each tumour was excised and weighed and a mean actual tumour weight (mg) per group was calculated along with the mean actual volume ([…]). […] Mean tumour regression was determined using the formula [1−(mean actual tumour weightFINAL/mean tumour weightDAY 1)×100%].
In general terms: In xenograft studies the graft and the host belong to different species.

A short description of series [2]: In vivo pharmacokinetic evaluation after i.v. and p.o. administration to rats. The following applies: rat, plasma, po, 25 mg/Kg, Rat 3, PO; calculated using AUC0-480; read-out: BA (oral bioavailability).
The next series relates to MCF—7 cell line. The series is described as follows: Cell proliferation assay (CellTiter 96 AQueous One) as indicator of toxicity, MCF-7. In kind it is cell-based. The settings on record: MCF—7, 100 μM. The protocol:
A simple cell proliferation assay was used to determine the in vitro cytotoxicity of “compound 1.” Selected cell lines were cultured according to their specific requirements. The optimal cell density required for each cell line was determined. All compounds were tested at a single concentration in triplicate. Cell viability was determined using the CellTiter 96® AQueous One reagent from Promega Corporation.
Assays are performed by adding the test compound to the cells in culture and incubating the cells for a fixed period. The number of viable cells remaining after the incubation period is determined by adding a small amount of the CellTiter 96® AQueous One Solution Reagent directly to culture wells, incubating for 1-4 hours and then recording absorbance at 490 nm with a 96 well plate reader.
Controls in the assay include untreated cells, wells without cells and cells treated with know cytotoxic agents. Data is presented as % inhibition of cell proliferation.

T1 sequence (P31391 whole entry): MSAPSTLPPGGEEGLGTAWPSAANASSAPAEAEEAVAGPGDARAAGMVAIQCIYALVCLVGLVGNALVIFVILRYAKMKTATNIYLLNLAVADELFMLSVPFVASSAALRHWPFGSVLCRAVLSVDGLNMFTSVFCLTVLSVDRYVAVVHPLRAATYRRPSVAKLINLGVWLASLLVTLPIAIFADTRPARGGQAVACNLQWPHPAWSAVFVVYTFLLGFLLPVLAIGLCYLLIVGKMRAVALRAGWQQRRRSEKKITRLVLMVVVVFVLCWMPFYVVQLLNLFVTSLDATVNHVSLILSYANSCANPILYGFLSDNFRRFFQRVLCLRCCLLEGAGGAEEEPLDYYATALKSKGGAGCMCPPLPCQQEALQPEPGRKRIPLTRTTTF

For `COC[C@H]1O[C@H](OCCc2ccccc2)[C@H](NC(=O)CCCN)[C@@H](OCc2ccc3ccccc3c2)[C@@H]1O` [Compound 1], the IC50 on SSTR-4 was greater than 12.5 µM. The “Tumour growth inhibition (TGI)” value in series [1] (20 mg/kg i.v. daily) and in series [1] (35 mg/kg i.v. daily) was 34% throughout. Besides, in series [2], the bioavailability is 4.95%. Besides, the “Inhibition of cell proliferation” value with MCF—7 cell line is “no inhibitory effect”.

As a reminder, the IC50 is the concentration needed to halve the response being measured. In general, bioavailability refers to the share of a dose that reaches the circulation, judged against a reference dose that is usually intravenous.
